# Measured values taken from ChEMBL document CHEMBL3244272, “Folate antagonists. 15. 2,3-Diamino-6-(2-naphthylsulfonyl)quinazoline and related 2,4-diamino-6-[(phenyl and naphthyl)sulfinyl and sulfonyl]quinazolines, a potent new class of antimetabolites with phenomenal antimalarial activity” (J Med Chem, 1979).
# Calls of active or inactive are those of the source. The calls are words filed in the database; no cut-off is given here.
# Tests used:
# [1] = tested on: Enterococcus faecalis; assay: Antibacterial activity against Streptococcus faecalis MGH-2 assessed as growth inhibition; assay type: functional
# [2] = tested on: Plasmodium berghei; assay: Antimalarial activity against trophozoite-induced Plasmodium berghei infected in mouse assessed as change in mean survival time at 10 mg/kg, sc single dose after 72 hrs of infection; assay type: functional; details: route subcutaneous
# [3] = tested on: Plasmodium berghei; assay: Antimalarial activity against trophozoite-induced Plasmodium berghei infected in mouse assessed as change in mean survival time at 40 mg/kg, sc single dose after 72 hrs of infection; assay type: functional; details: route subcutaneous
# [4] = tested on: Staphylococcus aureus; assay: Antibacterial activity against Staphylococcus aureus UC-76 assessed as growth inhibition; assay type: functional
# [5] = tested on: Plasmodium gallinaceum; assay: Antimalarial activity against sporozoite-induced Plasmodium gallinaceum infected in chick assessed as change in cured at 30 mg/kg, sc single dose; assay type: functional; details: route subcutaneous
# [6] = tested on: Plasmodium berghei; assay: Antimalarial activity against trophozoite-induced Plasmodium berghei infected in mouse assessed as change in mean survival time at 80 mg/kg, sc single dose after 72 hrs of infection; assay type: functional; details: route subcutaneous
# [7] = tested on: Staphylococcus aureus; assay: Antibacterial activity against Staphylococcus aureus S18713 assessed as growth inhibition; assay type: functional
# [8] = tested on: Pseudomonas aeruginosa; assay: Antibacterial activity against Pseudomonas aeruginosa 28 assessed as growth inhibition; assay type: functional
# [9] = tested on: Plasmodium gallinaceum; assay: Antimalarial activity against sporozoite-induced Plasmodium gallinaceum infected in chick assessed as change in cured at 15 mg/kg, sc single dose; assay type: functional; details: route subcutaneous
# [10] = tested on: Plasmodium berghei; assay: Antimalarial activity against trophozoite-induced Plasmodium berghei infected in sc dosed mouse assessed as minimum curative dose; assay type: functional
# [11] = tested on: Plasmodium berghei; assay: Antimalarial activity against trophozoite-induced Plasmodium berghei infected in mouse assessed as change in mean survival time at 20 mg/kg, sc single dose after 72 hrs of infection; assay type: functional; details: route subcutaneous
# [12] = tested on: Shigella sonnei; assay: Antibacterial activity against Shigella sonnei C-10 assessed as growth inhibition; assay type: functional
# [13] = tested on: Plasmodium gallinaceum; assay: Antimalarial activity against sporozoite-induced Plasmodium gallinaceum infected in chick assessed as change in cured at 7.5 mg/kg, sc single dose; assay type: functional; details: route subcutaneous
# [14] = tested on: Escherichia coli; assay: Antibacterial activity against Escherichia coli Vogel assessed as growth inhibition; assay type: functional
# [15] = tested on: Mycobacterium tuberculosis; assay: Antibacterial activity against Mycobacterium tuberculosis H37Rv assessed as growth inhibition; assay type: functional
# [16] = tested on: Plasmodium berghei; assay: Antimalarial activity against trophozoite-induced Plasmodium berghei infected in mouse assessed as change in mean survival time at 5 mg/kg, sc single dose after 72 hrs of infection; assay type: functional; details: route subcutaneous
# [17] = tested on: Plasmodium falciparum; assay: Antimalarial activity against chloroquine-sensitive, pyrimethamine-resistant Plasmodium falciparum Malayan Camp CH/Q infected in Aotus monkey assessed as dose required to >50% cures compound treated for 7 days; assay type: functional
# [18] = tested on: Plasmodium berghei; assay: Antimalarial activity against trophozoite-induced Plasmodium berghei infected in mouse assessed as change in mean survival time at 1.25 mg/kg, sc single dose after 72 hrs of infection; assay type: functional; details: route subcutaneous
# [19] = tested on: Plasmodium berghei; assay: Antimalarial activity against trophozoite-induced Plasmodium berghei infected in mouse assessed as change in mean survival time at 2.5 mg/kg, sc single dose after 72 hrs of infection; assay type: functional; details: route subcutaneous
# [20] = tested on: Plasmodium falciparum; assay: Antimalarial activity against chloroquine-resistant, pyrimethamine-sensitive Plasmodium falciparum Vietnam Oak Knoll in Aotus monkey assessed as dose required to >50% cures compound treated for 7 days; assay type: functional
# [21] = tested on: Plasmodium gallinaceum; assay: Antimalarial activity against cycloguanil-resistant Plasmodium gallinaceum infected in mouse assessed as dose required to suppress parasitemia by 90% compound treated through gavage for 3 days relative to parent strain; assay type: functional
# [22] = tested on: Plasmodium gallinaceum; assay: Antimalarial activity against cycloguanil-resistant Plasmodium gallinaceum infected in mouse assessed as dose required to suppress parasitemia by 90% compound treated through gavage for 3 days; assay type: functional
# [23] = tested on: Plasmodium gallinaceum; assay: Antimalarial activity against sporozoite-induced Plasmodium gallinaceum infected in chick assessed as change in cured at 60 mg/kg, sc single dose; assay type: functional; details: route subcutaneous
# [24] = tested on: Gallus gallus; assay: Toxicity in trophozoite-induced Plasmodium gallinaceum infected in chick assessed as death at 120 mg/kg, sc single dose measured within 48 hrs; assay type: organism-based; set-up: dose 120 mg/kg, route subcutaneous; details: chicken, in vivo
# [25] = tested on: Plasmodium gallinaceum; assay: Antimalarial activity against trophozoite-induced Plasmodium gallinaceum infected in chick assessed as mean survival time at 120 mg/kg, sc single dose (reference value: 4 days); assay type: functional; details: route subcutaneous
# [26] = tested on: Plasmodium berghei; assay: Antimalarial activity against trophozoite-induced Plasmodium berghei infected in mouse assessed as change in mean survival time at 160 mg/kg, sc single dose after 72 hrs of infection; assay type: functional; details: route subcutaneous
# [27] = tested on: Plasmodium gallinaceum; assay: Antimalarial activity against trophozoite-induced Plasmodium gallinaceum infected in chick assessed as cured at 120 mg/kg, sc single dose; assay type: functional, organism-based; set-up: dose 120 mg/kg
Structure (SMILES),MIC [1] [mg/L],MST [2] [days],MIC [4] [mg/L],MIC [7] [mg/L],MIC [8] [mg/L],MCD [10] [mg/kg],MST [11] [days],MIC [12] [mg/L],MIC [14] [mg/L],MST [16] [days],MST [18] [days],MST [19] [days],fold change (FC) [21],Activity [22] [mg/kg],other results
Nc1nc(N)c2cc([S+]([O-])c3ccccc3)ccc2n1 (stereo not drawn),< 0.25,1.1,< 0.25,< 0.25,> 25,160,4.9,15,1.5,–,–,–,–,–,MST [3]: 11.3 days; MST [5]: 0 days; MST [6]: 15.9 days; MST [9]: 0 days; MST [13]: 0 days; MIC [15]: 20 mg/L
Nc1nc(N)c2cc(S(=O)(=O)c3cccc(C(F)(F)F)c3)ccc2n1,0.25,11.6,1.5,2,> 25,40,13.9,> 25,> 25,7.7,0.5,1.5,–,–,Activity [17]: 1.56 mg/kg; Activity [20]: 0.39 mg/kg; MIC [15]: 25 mg/L
Nc1nc(N)c2cc(S(=O)(=O)c3ccc(Br)cc3)ccc2n1,< 0.25,13.1,< 0.25,< 0.25,> 25,10,9.9,> 25,2.5,10.3,–,6.5,<3,<1.6,–
Nc1nc(N)c2cc(Sc3ccc4ccccc4c3)ccc2n1,–,–,–,–,–,–,–,–,–,–,–,–,0,<1.6,Activity [17]: 3.125 mg/kg; Activity [20]: 1.56 mg/kg
Nc1nc(N)c2cc([S+]([O-])c3ccc(F)cc3)ccc2n1 (stereo not drawn),–,5.5,–,–,–,20,8.9,–,–,–,–,–,–,–,MST [3]: 11.5 days; MST [5]: 0.7 days; MST [6]: 16.9 days; MST [23]: 0.7 days; MST [9]: 1 days
Nc1nc(N)c2cc(S(=O)(=O)c3cccc(-c4ccccc4)c3)ccc2n1,< 0.25,13.9,1,1.5,> 25,40,21.9,> 25,> 25,13.6,4.1,9.3,–,–,MST [3]: 16.9 days; MST [5]: 0 days; MST [9]: 0 days; MST [13]: 2.4 days; MIC [15]: > 25 mg/L
Nc1nc(N)c2cc(Sc3ccc(Br)cc3)ccc2n1,–,–,–,–,–,–,–,–,–,–,–,–,<4,<1.6,–
Nc1nc(N)c2cc(S(=O)(=O)c3ccc(F)cc3)ccc2n1,–,12.9,–,–,–,20,–,–,–,13.6,4.1,6.9,3,0.6,–
Nc1nc(N)c2cc([S+]([O-])c3ccc4ccccc4c3)ccc2n1 (stereo not drawn),< 0.25,31.9,< 0.25,< 0.25,> 25,20,–,2.5,< 0.25,14.2,6.7,10.9,0,0.1,Activity [17]: 0.78 mg/kg; Activity [20]: 0.39 mg/kg
Nc1nc(N)c2cc(Sc3ccc(Cl)c(Cl)c3)ccc2n1,–,–,–,–,–,–,–,–,–,–,–,–,0,<0.4,–
CN(C)c1ccc(Sc2ccc3nc(N)nc(N)c3c2)cc1,–,–,–,–,–,–,–,–,–,–,–,–,0,0.9,Activity [17]: 2.5 mg/kg; Activity [20]: 1.25 mg/kg
Cc1c([S+]([O-])c2ccc3ccccc3c2)ccc2nc(N)nc(N)c12 (stereo not drawn),< 0.25,–,> 25,> 25,> 25,20,–,> 25,> 25,22.9,9.7,10.7,–,–,MST [5]: 3.7 days; MST [23]: 3.7 days; MST [9]: 3.7 days; MST [13]: 3.7 days
COc1ccc([S+]([O-])c2ccc3nc(N)nc(N)c3c2)cc1 (stereo not drawn),–,0.7,–,–,–,20,2.7,–,–,–,–,–,–,–,MST [3]: 10.5 days; Activity [24]: Toxic; MST [25]: 24.2 days; MST [6]: 13.2 days; MST [26]: 25.9 days; Activity [27]: Active
Nc1nc(N)c2cc([S+]([O-])c3cccc(C(F)(F)F)c3)ccc2n1 (stereo not drawn),< 0.25,12.7,< 0.25,< 0.25,> 25,40,21.4,> 25,> 25,9.1,1.1,4.1,–,–,MST [13]: 6.4 days
